# Data from patent publication US6455550B1, “N-alkanoylphenylalanine derivatives” (Hoffmann-La Roche Inc., priority 1997, dated 2002).
# pIC50: −log10 of the molar value. Like-named read-outs stand apart in the source and are kept apart here.
# Experiments:
# [1] = target: T1, VLA-4 (α4β1 integrin) binding to immobilized VCAM-1 (Homo sapiens, UniProt P05556+P13612); assay: VLA-4/VCAM-1 Screening Assay (solid-phase, dual antibody ELISA); conditions: for IC50: IC50 nM
# T1 construct: followed by 10 μl of Ramos cell-derived VLA-4; endogenous in cells; host or cells: Ramos cells (VLA-4 preparation derived from the cells)
# T1 sequence (P13612 34-1032): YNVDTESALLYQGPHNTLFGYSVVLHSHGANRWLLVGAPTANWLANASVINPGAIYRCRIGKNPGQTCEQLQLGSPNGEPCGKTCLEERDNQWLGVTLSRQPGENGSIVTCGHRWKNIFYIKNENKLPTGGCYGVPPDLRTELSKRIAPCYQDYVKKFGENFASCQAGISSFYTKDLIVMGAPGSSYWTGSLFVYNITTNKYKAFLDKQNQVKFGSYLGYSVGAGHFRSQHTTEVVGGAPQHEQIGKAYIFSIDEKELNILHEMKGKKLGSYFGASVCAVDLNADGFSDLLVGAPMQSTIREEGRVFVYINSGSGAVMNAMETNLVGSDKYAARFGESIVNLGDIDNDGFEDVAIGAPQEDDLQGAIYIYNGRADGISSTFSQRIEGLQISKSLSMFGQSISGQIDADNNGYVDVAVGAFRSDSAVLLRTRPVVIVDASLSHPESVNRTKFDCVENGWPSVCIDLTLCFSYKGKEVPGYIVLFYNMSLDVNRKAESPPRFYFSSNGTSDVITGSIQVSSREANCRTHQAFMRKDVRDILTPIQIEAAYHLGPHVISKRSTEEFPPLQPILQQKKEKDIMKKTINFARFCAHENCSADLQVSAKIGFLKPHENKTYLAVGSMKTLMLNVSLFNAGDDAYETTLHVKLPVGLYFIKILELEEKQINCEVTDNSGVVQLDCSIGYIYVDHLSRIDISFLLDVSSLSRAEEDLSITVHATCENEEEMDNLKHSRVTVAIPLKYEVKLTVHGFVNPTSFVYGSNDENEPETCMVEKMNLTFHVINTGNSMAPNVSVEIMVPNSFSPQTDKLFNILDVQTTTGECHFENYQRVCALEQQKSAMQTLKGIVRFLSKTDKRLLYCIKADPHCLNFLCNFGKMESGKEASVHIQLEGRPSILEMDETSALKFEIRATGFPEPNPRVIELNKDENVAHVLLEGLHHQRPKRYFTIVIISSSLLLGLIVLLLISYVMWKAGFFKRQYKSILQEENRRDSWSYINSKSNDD
# T1 sequence (P05556 21-798): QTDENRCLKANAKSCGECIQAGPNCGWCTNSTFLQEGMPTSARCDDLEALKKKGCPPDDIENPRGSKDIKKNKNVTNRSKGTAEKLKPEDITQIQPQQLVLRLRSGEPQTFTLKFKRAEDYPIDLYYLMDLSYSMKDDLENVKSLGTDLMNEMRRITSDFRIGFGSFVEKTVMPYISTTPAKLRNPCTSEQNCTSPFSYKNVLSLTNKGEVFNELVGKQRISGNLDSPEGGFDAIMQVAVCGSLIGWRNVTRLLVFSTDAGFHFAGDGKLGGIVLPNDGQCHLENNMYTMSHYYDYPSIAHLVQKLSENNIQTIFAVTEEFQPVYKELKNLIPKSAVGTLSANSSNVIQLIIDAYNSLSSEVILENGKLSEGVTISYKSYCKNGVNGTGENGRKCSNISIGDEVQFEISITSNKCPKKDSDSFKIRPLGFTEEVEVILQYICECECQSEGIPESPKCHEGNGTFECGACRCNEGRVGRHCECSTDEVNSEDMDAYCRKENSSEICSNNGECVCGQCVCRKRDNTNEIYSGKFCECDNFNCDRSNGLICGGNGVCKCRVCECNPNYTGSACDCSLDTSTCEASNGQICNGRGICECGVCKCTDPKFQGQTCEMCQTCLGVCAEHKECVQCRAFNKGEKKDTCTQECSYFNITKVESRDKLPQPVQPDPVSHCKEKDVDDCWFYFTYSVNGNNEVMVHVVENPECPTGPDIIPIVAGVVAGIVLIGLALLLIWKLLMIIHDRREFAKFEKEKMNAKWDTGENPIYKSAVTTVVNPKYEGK
# Procedure, shortened: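 Recombinant human VCAM-1 is coated onto plates and Ramos cell-derived VLA-4 is added with compound (final DMSO 5%) in Tris buffer pH 7.4 with 1 mM MnCl2 and 1 mg/mL BSA, 2 hr at 37° C. Bound VLA-4 is detected by anti-β1 antibody, HRP anti-mouse IgG and K-Blue colorimetry. Results are % inhibition of total binding.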
# [2] = target: T2, cell-surface VLA-4 (α4β1 integrin) on Ramos cells binding to immobilized VCAM-1 (Homo sapiens, UniProt P05556+P13612); assay: Ramos (VLA-4)/VCAM-1 Cell-Based Screening Assay (cell adhesion); conditions: for IC50: IC50 in Ramos Cell Based Assay (nM)
# T2 construct: Ramos cells bearing cell-surface VLA-4; endogenous in cells; host or cells: Ramos cells (VLA-4); VCAM-1 purified from CHO cell culture media
# T2 sequence (P13612 34-1032): as the sequence (P13612 34-1032) above
# T2 sequence (P05556 21-798): as the sequence (P05556 21-798) above
# Source text: Calcein-AM was purchased from Molecular Probes Inc.
# VLA-4 (α4β1 integrin) antagonist activity, defined as ability to compete with cell-surface VLA-4 for binding to immobilized VCAM-1, was quantitated using a Ramos-VCAM-1 cell adhesion assay. Ramos cells bearing cell-surface VLA-4, were labeled with a fluorescent dye (Calcein-AM) and allowed to bind VCAM-1 in the presence or absence of test compounds.
# Initially, this entailed coating 96 well plates (Nunc Maxisorp) with recombinant human VCAM-1 (100 ng in 100 μl PBS), sealing each plate and allowing the plates to stand at 4° C for Å18 hr. The VCAM-coated plates were subsequently washed twice with 0.05% Tween-20 in PBS, and then blocked for 1hr (room temperature) with 200 μl of Blocking Buffer (1% BSA/0.02% thimerosal) to reduce non-specific binding. Following the incubation with Blocking Buffer, plates were inverted, blotted and the remaining buffer aspirated. Each plate was then washed with 300 μl PBS, inverted and the remaining PBS aspirated.
# Test compounds were dissolved in 100% DMSO and then diluted 1:25 in VCAM Cell Adhesion Assay Buffer (4 mM CaCl2, 4 mM MgCl2 in 50 mM TRIS-HCl, pH 7.5) (final DMSO=4%). […] 100 μl/well of each dilution was added to the VCAM-coated plates, followed by 100 μl of Ramos cells (200,000 cells/well in 1% BSA/PBS). […] Plates were inverted to remove non-adherent cells, blotted and 300 μl/well PBS added. Plates were again inverted, blotted and the remaining buffer gently aspirated. 100 μl Lysis Buffer (0.1% SDS in 50 mM TRIS-HCl, pH 8.5) was added to each well and agitated for 2 min on a rotary shaking platform.
# [3] = Ramos cell-derived VLA-4, recombinant human VCAM-1 coated plates, 2 hr at 37° C., read-out: IC50
# [4] = Calcein-AM labeled Ramos cells, VCAM-1 coated plates, 45 min at room temperature
# [5] = Calcein-AM labeled Ramos cells, VCAM-1 coated plates, 45 min at room temperature, read-out: IC50 in Ramos Cell Based Assay
# [6] = Ramos cell-derived VLA-4, recombinant human VCAM-1 coated plates, 2 hr at 37° C.
Structure (SMILES),"pIC50 [1, 3]","IC50 [2, 4] [nM]","pIC50 [2, 5]","IC50 [1, 6] [nM]",further results
"COc1ccc(CC2(C(=O)N[C@@H](Cc3ccc(NC(=O)c4c(Cl)cccc4Cl)cc3)C(=O)O)CCCCC2)cc1 [Example 47, 4-[[(2,6-Dichlorophenyl)carbonyl]amino]-N-[[1-(4-methoxyphenylmethyl)cyclohexyl]carbonyl]-L-phenylalanine]",,,,,melting point: 136 to 140 °C
[N-]=[N+]=NCCC1(C(=O)N[C@@H](Cc2ccc(NC(=O)c3c(Cl)cccc3Cl)cc2)C(=O)O)CCCC1 [Example 58],9.24,47,,,
COc1ccc(CC2(C(=O)N[C@@H](Cc3ccc(NC(=O)c4c(Cl)cccc4Cl)cc3)C(=O)O)CCCC2)cc1 [Example 95],9.16,,7.46,,
Cc1cc([N+](=O)[O-])ccc1C(=O)Nc1ccc(C[C@H](NC(=O)C2(C)CC2(Cl)Cl)C(=O)O)cc1 (stereo partly shown) [Example 100],9.59,,7.26,,
O=C(NCCC1(C(=O)N[C@@H](Cc2ccc(NC(=O)c3c(Cl)cccc3Cl)cc2)C(=O)O)CCCC1)c1ccno1 [Example 158],8.30,,6.91,,
O=C(Nc1ccc(C[C@H](NC(=O)C2(CCNC(=O)C3CCCN3C(=O)C(F)(F)F)CCCC2)C(=O)O)cc1)c1c(Cl)cccc1Cl (stereo partly shown) [Example 159],8.19,,6.50,,
O=C(NCCC1(C(=O)N[C@@H](Cc2ccc(NC(=O)c3c(Cl)cccc3Cl)cc2)C(=O)O)CCCC1)c1ccncc1 [Example 160],,,,,pIC50 [1]: 8.24; pIC50 [2]: 6.48
COCC(=O)NCCC1(C(=O)N[C@@H](Cc2ccc(NC(=O)c3c(Cl)cccc3Cl)cc2)C(=O)O)CCCC1 [Example 162],8.92,,7.64,,
COC(=O)CCC(=O)NCCC1(C(=O)N[C@@H](Cc2ccc(NC(=O)c3c(Cl)cccc3Cl)cc2)C(=O)O)CCCC1 [Example 163],8.62,,7.07,,
"CNC(=O)NCCC1(C(=O)N[C@@H](Cc2ccc(NC(=O)c3c(Cl)cccc3Cl)cc2)C(=O)O)CCCC1 [Example 187, 4-[[(2,6-Dichlorophenyl)carbonyl]amino]-N-[[1-[2-[[(methylamino)carbonyl]amino]ethyl]cyclopentyl]carbonyl]-L-phenylalanine]",9.59,,8.24,,
C/N=C(\S)NCCC1(C(=O)N[C@@H](Cc2ccc(NC(=O)c3c(Cl)cccc3Cl)cc2)C(=O)O)CCCC1 [Example 192],,22,,0.14,
COC(=O)NCCC1(C(=O)N[C@@H](Cc2ccc(NC(=O)c3c(Cl)cccc3Cl)cc2)C(=O)O)CCCC1 [Example 193],9.26,,7.40,,
"CC(=O)N(C)CCC1(C(=O)N[C@@H](Cc2ccc(NC(=O)c3c(Cl)cccc3Cl)cc2)C(=O)O)CCCC1 [Example 200, 4-[[(2,6-Dichlorophenyl)carbonyl]amino]-N-[[1-[2-[(acetyl)(methyl)amino]ethyl]cyclopentyl]carbonyl]-L-phenylalanine]",9.09,,7.72,,
"COC(=O)N(C)CCC1(C(=O)N[C@@H](Cc2ccc(NC(=O)c3c(Cl)cccc3Cl)cc2)C(=O)O)CCCC1 [Example 202, 4-[[(2,6-Dichlorophenyl)carbonyl]amino]-N-[[1-[2-[(methoxycarbonyl)(methyl)amino]ethyl]cyclopentyl]carbonyl]-L-phenylalanine]",9.00,,7.51,,
"CC(C)(C)OC(=O)NCC(=O)NCCC1(C(=O)N[C@@H](Cc2ccc(NC(=O)c3c(Cl)cccc3Cl)cc2)C(=O)O)CCCC1 [Example 216, 4-[[(2,6-dichlorophenyl)carbonyl]amino]-N-[[1-[2-[[2-[[(1,1-dimethylethoxy)carbonyl]amino]-1-oxoethyl]amino]ethyl]cyclopentyl]carbonyl]-L-phenylalanine]",8.54,,6.45,,
"NCC(=O)NCCC1(C(=O)N[C@@H](Cc2ccc(NC(=O)c3c(Cl)cccc3Cl)cc2)C(=O)O)CCCC1 [Example 217, 4-[[(2,6-dichlorophenyl)carbonyl]amino]-N-[[1-[2-[(2-amino-1-oxoethyl)amino]ethyl]yclopentyl]carbonyl]-L-phenylalanine]",8.70,,6.68,,
CSCCC1(C(=O)N[C@@H](Cc2ccc(NC(=O)c3c(Cl)cccc3Cl)cc2)C(=O)O)CCCC1 [Example 249],,62,,0.29,

Structure (SMILES),"pIC50 [1, 3]","IC50 [2, 4] [nM]","pIC50 [2, 5]","IC50 [1, 6] [nM]",further results
COCCCCC1(C(=O)N[C@@H](Cc2ccc(NC(=O)c3c(Cl)cccc3Cl)cc2)C(=O)O)CCCC1 [Example 250],,,7.55,0.32,
NCCC1(C(=O)N[C@@H](Cc2ccc(NC(=O)c3c(Cl)cccc3Cl)cc2)C(=O)O)CCCC1 [Example 252],,228,,5.1,
CC(C)(C)OC(=O)NCCC1(C(=O)N[C@@H](Cc2ccc(NC(=O)c3c(Cl)cccc3Cl)cc2)C(=O)O)CCCC1 [Example 254],8.70,,6.44,,
O=C(Nc1ccc(C[C@H](NC(=O)C2(CCCCO)CCCC2)C(=O)O)cc1)c1c(Cl)cccc1Cl [Example 255],,27,,0.5,
O=C(Nc1ccc(C[C@H](NC(=O)C2(CCN3CCOCC3)CCCC2)C(=O)O)cc1)c1c(Cl)cccc1Cl [Example 256],,151,,2.4,
COc1ccc(C(=O)NCCC2(C(=O)N[C@@H](Cc3ccc(NC(=O)c4c(Cl)cccc4Cl)cc3)C(=O)O)CCCC2)cc1 [Example 257],,635,,40,
O=C(NCCC1(C(=O)N[C@@H](Cc2ccc(NC(=O)c3c(Cl)cccc3Cl)cc2)C(=O)O)CCCC1)c1cccc(C(F)(F)F)c1 [Example 258],,1030,,14,
CC(=O)NCCCCC1(C(=O)N[C@@H](Cc2ccc(NC(=O)c3c(Cl)cccc3Cl)cc2)C(=O)O)CCCC1 [Example 259],,129,,3.6,
CCCCC1(C(=O)N[C@@H](Cc2ccc(NC(=O)c3c(Cl)cccc3Cl)cc2)C(=O)O)CCCC1 [Example 270],,150,,1.1,
C=CCCC1(C(=O)N[C@@H](Cc2ccc(NC(=O)c3c(Cl)cccc3Cl)cc2)C(=O)O)CCCC1 [Example 271],,,7.17,0.55,
N#CCC1(C(=O)N[C@@H](Cc2ccc(NC(=O)c3c(Cl)cccc3Cl)cc2)C(=O)O)CCCC1 [Example 272],9.00,96,,,
C[S+]([O-])CCC1(C(=O)N[C@@H](Cc2ccc(NC(=O)c3c(Cl)cccc3Cl)cc2)C(=O)O)CCCC1 (stereo partly shown) [Example 357],,25,,,melting point: 255 to 258 °C
CS(=O)(=O)CCC1(C(=O)N[C@@H](Cc2ccc(NC(=O)c3c(Cl)cccc3Cl)cc2)C(=O)O)CCCC1 [Example 358],,75,,,melting point: 184 to 187 °C
"COCCC1(C(=O)N[C@@H](Cc2ccc(NC(=O)c3cc(C#N)ccc3Cl)cc2)C(=O)OC)CCCC1 [Example 362, 4-[(2-Chloro-5-cyanophenylcarbonyl)amino]-N-[[1-(2-methoxyethyl)cyclopentyl]carbonyl]-L-phenylalanine Methyl Ester]",,,,,melting point: 172 to 175 °C
"COCCC1(C(=O)N[C@@H](Cc2ccc(N3C(=O)c4ccc(C#N)cc4C3=O)cc2)C(=O)O)CCCC1 [Example 371, 4-(5-Cyano-1,3-dioxo-2H-isoindol-2-yl)-N-[[1-(2-methoxyethyl)cyclopentyl]carbonyl]-L-phenylalanine]",8.78,,,,melting point: 143 to 146 °C
"COCCC1(C(=O)N[C@@H](Cc2ccc(NC(=O)c3c(Cl)cccc3Cl)cc2)C(=O)OC)CCCC1 [Example 397, 4-[[(2,6-Dichlorophenyl)carbonyl]amino]-N-[[1-(2-methoxyethyl)cyclopentyl]carbonyl]-L-phenylalanine Methyl Ester]",,,,,melting point: 85 to 87 °C
"COCCC1(C(=O)N[C@@H](Cc2ccc(NC(=O)c3c(Cl)cccc3Cl)cc2)C(=O)O)CCCC1 [Example 398, 4-[[(2,6-Dichlorophenyl)carbonyl]amino]-N-[[1-(2-methoxyethyl)cyclopentyl]carbonyl]-L-phenylalanine]",,,,,melting point: 136 to 140 °C
